Experimental data published in patent publication US20250263370A1 (Tay Therapeutics Limited, priority 2022, published 2025).
Like-named read-outs stand apart in the source and are kept apart here.

Assays:
[1] = test system: collagen-induced arthritis; settings: rat, in vivo, po
CXCL10 = CXCL10 levels by ELISA in IFN-γ stimulated human peripheral blood mononuclear cells; format: cell-based; settings: human PBMC
Procedure: The impact of Examples 23, 80, and 101 on IL-17A, IL-22, and CXCL10 levels was analyzed in cryopreserved human peripheral blood mononuclear cells (PBMC) by ELISA. […] For IL-17A and IL-22 assays, Examples 23, 80, and 101 were serially diluted from 10 mM in DMSO and further diluted in assay media to 100× the required final concentration, of which, 2 μL was added per well to a round-bottom 96-well tissue culture plate where the final DMSO concentration per well was 0.1%. CD2, CD3, and CD28 antibody-coated beads from the T-cell activation/expansion kit (Miltenyi Biotec) were added to the PBMC at a bead-to-cell ratio of 1:2.
(§1) The mixture of PBMCs and beads were seeded into the wells of the round-bottom 96-well plate at a concentration of 2×10^5 cells/well in a total volume of 200 μL. The cells were cultured for 72 hours at 37° C. and 5% CO2 and then supernatants were collected and IL-17A and IL-22 levels were measured by ELISA. For the CXCL10 assay, Examples 23, 80, and 101 were serially diluted from 10 mM in DMSO and further diluted in assay media to 100× the required final concentration, of which 2 μL was added per well to a 96-well tissue culture plate. The final compound concentration ranged from 30,000 nM to 0.005 nM and the final DMSO concentration per well was 0.3%. PBMCs were seeded at approximately 2×10^5 cells/well in the wells of the 96-well tissue culture plate in a total volume of 190 μL. The plate was incubated for 1 hour at 37° C. and 5% CO2. The cells were then stimulated with IFN-γ (15 ng/mL final concentration) in a volume of 10 μL. The cells were then cultured for 24 hours at 37° C. and 5% CO2. The supernatant was collected and CXCL10 levels were measured by ELISA.

IL-22 = IL-22 levels by ELISA in stimulated human peripheral blood mononuclear cells; format: cell-based; settings: Homo sapiens, PBMC
Procedure: CD2, CD3, and CD28 antibody-coated beads from the T-cell activation/expansion kit (Miltenyi Biotec) were added to the PBMC at a bead-to-cell ratio of 1:2.
as §1, with “For the CXCL10 assay, Examples 23, 80, and 101 were serially diluted from 10 mM in DMSO and further diluted in assay media to 100× the required final concentration, of which 2 μL was added per well to a 96-well tissue culture plate.” left out, “The cells were then stimulated with IFN-γ (15 ng/mL final concentration) in a volume of 10 μL.” left out

[2] = test system: collagen-induced arthritis; experiment: Histopathologic analysis of H&E-stained hind limbs of CIA rats; format: in vivo, Lewis rat
From the text: Hind limbs were collected following euthanasia, with the left limb being used for H&E staining.
H&E-stained slides of designated tissues from animals were transferred to an independent pathologist for microscopic evaluation (SPFBio). Samples were assigned the histologic grades based on the severity of change from tissue where CIA was not induced. Histology grades assigned were as follows: grade 1 (minimal change), grade 2 (mild change), grade 3 (moderate change), grade 4 (marked change), and grade 5 (severe change).
Moderate inflammation was also associated with increased edema fluid, fibrin, and cellular debris. Marked mixed cell inflammation was characterized by dense, widespread accumulations of neutrophils and macrophages with lesser number of lymphocytes within one or more joint spaces, synovium and periarticular soft tissues. Marked inflammation was also associated with abundant edema fluid, fibrin, and cellular debris.
Marked granulation tissue (pannus) was associated with inflammation and was characterized by widespread fibrovascular connective tissue that expanded/replaced the periarticular soft tissues of one or more joints, extended into/expanded joint spaces, was contiguous with areas of erosion/ulcer in articular cartilage and/or increased eroded surface of bone, and variably extended along the diaphysis.
Instances of minimal increased eroded surface were not associated with fragments of bone contiguous and/or surrounded by granulation tissue. […] In some areas, increased eroded surfaces were contiguous with areas of erosion/ulcer in the articular cartilages. Instance of marked increased eroded surface were often associated with fragments of bone contiguous with and/or surrounded by granulation tissue.
This observation was typically most pronounced at joint margins (transition zone). The ulceration was often associated with inflammation and granulation tissue extending through the defect to the subchondral bone.
Marked increased periosteal bone (periosteal bone formation) was characterized by extensive areas of increased bone matrix and numerous prominent osteoblasts lining trabecular surfaces along the metaphysis and/or diaphysis of one or more bones. In some areas, increased periosteal bone was contiguous with increased eroded surface and/or erosion/ulcer at articular cartilage.

[3] = CIA rats, daily P.O. (group 4), hind limb H&E
[4] = hind limbs, CIA induced, 8 animals examined

CNC(=O)c1cc(C(=O)NC2CC2)cn(Cc2ccccc2)c1=O [GSK620]
body weight over the course of the study [1]: modest weight gains over the first 13 days of the study followed by weight loss
diarrhea over the 21-day period [1]: did not have diarrhea
increase in body weight, day 21 compared to day 0 [1]: 0.8%
IC50 (CXCL10; Test Subject 1, read-out: CXCL10 IC50): > 30000 nM
IC50 (CXCL10; Test Subject 2, read-out: CXCL10 IC50): > 30000 nM
IC50 (CXCL10; Test Subject 3, read-out: CXCL10 IC50): > 30000 nM
IC50 (CXCL10; mean of test subjects, read-out: CXCL10 IC50 Mean): > 30000 nM
IC50 (IL-22; Test Subject 1, read-out: IL-22 IC50): 231 nM
IC50 (IL-22; Test Subject 2, read-out: IL-22 IC50): 21.6 nM
IC50 (IL-22; Test Subject 3, read-out: IL-22 IC50): 106 nM
IC50 (IL-22; mean of test subjects, read-out: IL-22 IC50 Mean): 120 nM
erosion/ulcer in articular cartilage [2, 3]: mild and mild to moderate
granulation tissue (pannus) [2, 3]: mild and mild to moderate
increased eroded surface of bone (bone resorption) [2, 3]: mild and minimal to moderate
increased periosteal bone (periosteal bone formation) [2, 3]: mild and mild to moderate
mixed cell inflammation [2, 3]: moderate
pathologic observations after microscopic evaluation, overall ([2]; CIA rats, daily P.O. for 21 days): at a lower level relative to samples from animals in the CIA-induced group
Number of animals: Erosion/Ulcer, cartilaginous, Marked [2, 4]: 0
Number of animals: Erosion/Ulcer, cartilaginous, Mild [2, 4]: 6
Number of animals: Erosion/Ulcer, cartilaginous, Minimal [2, 4]: 0
Number of animals: Erosion/Ulcer, cartilaginous, Moderate [2, 4]: 2
Number of animals: Granulation tissue, Marked [2, 4]: 0
Number of animals: Granulation tissue, Mild [2, 4]: 4
Number of animals: Granulation tissue, Minimal [2, 4]: 0
Number of animals: Granulation tissue, Moderate [2, 4]: 4
Number of animals: Increased bone, periosteum, Marked [2, 4]: 0
Number of animals: Increased bone, periosteum, Mild [2, 4]: 6
Number of animals: Increased bone, periosteum, Minimal [2, 4]: 0
Number of animals: Increased bone, periosteum, Moderate [2, 4]: 2
Number of animals: Increased eroded surface, bone, Marked [2, 4]: 0
Number of animals: Increased eroded surface, bone, Mild [2, 4]: 4
Number of animals: Increased eroded surface, bone, Minimal [2, 4]: 1
Number of animals: Increased eroded surface, bone, Moderate [2, 4]: 3
Number of animals: Mixed cell inflammation, Marked [2, 4]: 0
Number of animals: Mixed cell inflammation, Mild [2, 4]: 0
Number of animals: Mixed cell inflammation, Minimal [2, 4]: 0
Number of animals: Mixed cell inflammation, Moderate [2, 4]: 8
Number of animals: No Visible Lesions [2, 4]: 0
